The source of these data is patent publication US11624095B2, “Method of quantifying HIV reservoirs by induced transcription based sequencing” (priority 2017, dated 2023).

Assay [1] relates to latent HIV proviruses in memory CD4+ T-cells of HIV-1-infected subjects. The assay can be described thus: EDITS assay, inducible HIV env RNA in resting memory cells after ex vivo activation. The class given is cell-based. From the text:
We developed a novel deep sequencing-based protocol (EDITS, Envelope Detection by Induced Transcription-based Sequencing) to measure RNA induction, capable of detecting inducible cell-associated HIV RNA. The EDITS Assay measures inducible HIV envelope RNA in infected cells, including patient-derived samples. The HIV envelope mRNA has been chosen because the splicing pattern covers a significant portion of the proviral genome, thus minimizing readouts from defective proviruses with large deletions (FIG. 1). Briefly, 1.25×10^6 resting memory cells from aviremic (<20 copies/ml) HIV-1-infected subjects are induced by one or more latency reversing agents (LRAs) and/or by engagement of the T-cell receptor (TCR).
FIG. 6 summarizes the protocol of the EDITS assay. Briefly, blood is collected from an HIV-infected individual and peripheral blood mononuclear cells (PBMCs) are purified. CD4^+ memory cells are negatively isolated using robotic magnetic bead isolation technology (Stemcell, 19157RF) and allowed to equilibrate in RPMI with 10% FBS, Primocin and 30 IU/ml of IL-2 overnight. 1.25 million cells are stimulated with one or more LRA (e.g., Concanavalin A) for 24 hours. […]
Fastq files are analyzed using a proprietary pipeline (bioinformatics tool) to not only quantify the amount of HIV-1 present in any given sample but also to determine viral diversity.

For assay [2], the system named is HIV in purified CD4+ T-cells from HIV-1-infected men and women. The assay can be described thus: modified EDITS assay quantifying spreading viral infection (HIV RNA+ cells after Con A stimulation). The class given is cell-based. The conditions noted are these: for spreading infection / HIV RNA induction: 300 pg/ml 17β-estradiol, 9 days; for spreading infection: absence of raltegravir, women compared to men (p=0.00052); for HIV RNA induction: women compared to men (p=0.00039); for number of HIV RNA positive cells per million: CD4+ memory cells stimulated 9 days with Con A in presence of 1 μM raltegravir. From the text: It is contemplated that the quantification of the latent HIV-1 can occur before, during, and after the course of a therapeutic regimen in order to determine the efficacy of a chosen therapeutic regimen. One way to assess the efficacy of the HIV-1 therapeutic is to compare the latent HIV-1 reactivation pre and post therapeutic administration. The amount of cell associated inducible HIV env RNA measured in the sample can then be compared to a control to determine the efficacy of the antiviral and/or LRAs. The control can be the amount of cell associated inducible HIV env RNA measured in infected cells prior to the administration of the one or more antiviral and/or latency reversing agents. In order to evaluate sex differences in CD4+ T-cells from male and female subjects, methods described herein can be modified to include an additional in vitro step allowing for the quantification of spreading viral infections in the presence of candidate agents. Therefore, in optional embodiments, purified CD4+ T-cells are stimulated with an HIV transcription inducing agent in the absence or presence of an antiretroviral agent to block spreading of HIV infection and a candidate agent. The amount of newly infected cells can be determined by measuring the increase in HIV RNA+ cells in the absence of the infection blocking agent compared to cells stimulated in the presence of the infection blocking agent.
The number of newly infected cells was determined, in accordance with the methods described herein, by measuring the HIV RNA+ cells in the absence of raltegravir after nine days. It was shown that the addition of 17β-estradiol blocked both HIV RNA induction and spreading infection in women compared to men, consistent with previous observations that the estrogen receptor-1 (ESR-1) can act as a repressor of HIV transcription.
CD4^+ T-cells were isolated from cryopreserved PBMCs and the frequencies of cells harboring total and integrated HIV-1 DNA (tHIV and iHIV) were measured relative to CD3 copy number. Cell associated (CA) unspliced (usHIV) RNA was quantified and multiply-spliced (msRNA) was measured using the identical semi-nested PCR with different primers. Low level viremia was quantified from seven milliliters of plasma with PCR amplification targeting a conserved, untranslated HIV-1 gag RNA sequence (the HMMCgag assay). Inducible HIV-1 RNA was measured using the TILDA assay; briefly, purified CD4^+ T-cells are stimulated maximally with PMA/ionomycin, serially diluted, lysed and HIV-1 msRNA measured with a two-step RT-PCR. Maximum likelihood estimates based on the number of positive wells are used to determine the frequency of cells harboring inducible HIV-1. A modified version of the EDITS assay was used to quantify spreading viral infections. Purified CD4^+ T-cells were stimulated with the mitogen Concanavalin A (Con A) in the absence or presence of 1 μM Raltegravir (to block spreading infection) and absence or presence of 300 pg/ml 17β-estradiol. Newly infected cells were determined after nine days as the increase in HIV RNA+ cells in the absence of Raltegravir.
As a complementary method to evaluate sex differences CD4^+ T-cells from a subset of men (n=6) and women (n=6) who underwent leukapheresis were evaluated for the level of inducible replication competent virus using a modified EDITS assay (FIG. 10). Purified CD4^+ memory cells were stimulated for 9 days to induce HIV transcription in the presence or absence of raltegravir and number of HIV RNA^+ cells was quantified by EDITS. […] In the absence of raltegravir, there were 348 RNA positive cells per million for the women and 457 RNA positive cells per million for the men, indicating spreading infection.

The mark [3] stands for this setting: Con A stimulation, listed as estrogen.

Consider `C[C@]12CC[C@@H]3c4ccc(O)cc4CC[C@H]3[C@@H]1CC[C@@H]2O` [17β-estradiol], for which, in assay [1] (samples activated ex vivo by TCR induction in presence and absence of Estradiol (FIG. 4)), the proviral reactivation entry is “potent inhibitor of proviral reactivation”. Besides, in assay [2] (Con A stimulation), the spreading infection result is “potently blocked” and the “HIV RNA induction” value was “potently blocked”. Also, in assay [2] (setting [3]), the spreading infection entry is given as “potently blocked” and the “HIV RNA induction” value is listed as “potently blocked”.
For the compound `Cc1nnc(C(=O)NC(C)(C)c2nc(C(=O)NCc3ccc(F)cc3)c(O)c(=O)n2C)o1` [raltegravir], the viral spread result in assay [2] (1 μM raltegravir, 9 days culture, Con A stimulation) is “blocked”. For the same compound, the “number of HIV RNA positive cells per million” value is given as 80 RNA positive cells per million in assay [2] (men (n=6)) and 74 RNA positive cells per million in assay [2] (women (n=6)).
On to Concanavalin A, for which, in assay [1] (strong LRAs such as TCR activation or mitogen activation, applicant's estimate), the “efficiency of activation of RNA from proviruses” value is “greater than 75%”.
